According to US20240368139A1, “NOVEL MODULATORS OF EHMT1 AND EHMT2 AND THERAPEUTIC USE THEREOF” (Tango Therapeutics, Inc., priority 2021, published 2024):

What was measured:
[1] = target: T1, human EHMT1 982-1266 (Homo sapiens, UniProt Q9H9B1); assay: EHMT1 enzyme assay on histone peptide substrate (3H-SAM SPA); settings: EHMT1 IC50, recombinant human EHMT1 982-1266, histone peptide substrate
T1 sequence (Q9H9B1 982-1266): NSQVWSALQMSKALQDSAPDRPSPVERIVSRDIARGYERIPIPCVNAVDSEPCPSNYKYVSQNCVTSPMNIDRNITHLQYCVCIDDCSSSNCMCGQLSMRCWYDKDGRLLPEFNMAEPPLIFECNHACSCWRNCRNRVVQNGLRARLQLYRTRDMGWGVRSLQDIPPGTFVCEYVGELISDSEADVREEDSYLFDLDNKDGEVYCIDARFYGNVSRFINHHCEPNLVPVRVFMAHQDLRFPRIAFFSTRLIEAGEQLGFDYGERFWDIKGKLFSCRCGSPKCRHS

[2] = target: T2, human EHMT2 913-1193 (Homo sapiens, UniProt Q96KQ7); assay: EHMT2 enzyme assay on histone peptide substrate (3H-SAM SPA); settings: EHMT2 IC50, recombinant human EHMT2 913-1193, histone peptide substrate
T2 sequence (Q96KQ7 913-1193): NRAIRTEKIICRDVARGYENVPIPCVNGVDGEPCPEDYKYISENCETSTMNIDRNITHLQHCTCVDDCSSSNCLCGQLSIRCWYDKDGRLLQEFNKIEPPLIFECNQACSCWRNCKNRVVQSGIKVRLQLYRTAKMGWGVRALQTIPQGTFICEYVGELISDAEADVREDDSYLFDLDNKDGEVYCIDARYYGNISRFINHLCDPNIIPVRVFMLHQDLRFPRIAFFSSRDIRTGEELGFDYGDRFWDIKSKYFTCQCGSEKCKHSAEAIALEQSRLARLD

Compound	IC50 [1] [nM]	IC50 [2] [nM]
CNc1cc(C)nc(Nc2cc3c(c(C4=CCNC(CO)CC4)c2F)OCC3)n1 (single isomer, unassigned) [Compound 159-a]	500 to 2000	> 2000
CNc1cc(C)nc(Nc2cc3c(c(C4=CCNC(CO)CC4)c2F)OCC3)n1 (single isomer, unassigned) [Compound 159]	< 100	100 to 500
CNc1cc(C)nc(Nc2cc3c(c(C4=CCNC(C)CC4)c2Cl)OCCO3)n1 (single isomer, unassigned) [Compound 161-a]	500 to 2000	> 2000
CNc1cc(C)nc(Nc2cc3c(c(C4=CCNC(C)CC4)c2Cl)OCCO3)n1 (single isomer, unassigned) [Compound 161]	< 100	< 100
CNc1cc(C)nc(Nc2cc3c(c(C4=CCNC(C)CC4)c2F)OCCC3)n1 (single isomer, unassigned) [Compound 162]	500 to 2000	500 to 2000
CNc1cc(C)nc(Nc2cc3c(c(C4=CCNC(C)CC4)c2F)OCCO3)n1 (single isomer, unassigned) [Compound 163-a]	500 to 2000	> 2000
CNc1cc(C)nc(Nc2cc3c(c(C4=CCNC(C)CC4)c2F)OCCO3)n1 (single isomer, unassigned) [Compound 163]	< 100	< 100
CNc1cc(C)nc(Nc2cc3c(c(C4=CCNC(C)CC4)c2F)OCCC3)n1 (single isomer, unassigned) [Compound 164]	< 100	< 100
CNc1cc(C)nc(Nc2cc3c(c(C4=CCNCC(F)C4)c2F)OCC3)n1 (single isomer, unassigned) [Compound 168]	100 to 500	100 to 500
CNc1cc(C)nc(Nc2cc3c(c(C4=CCNC(C)CC4)c2F)OCC3)n1 (single isomer, unassigned) [Compound 184]	100 to 500	500 to 2000
CNc1cc(C)nc(Nc2cc3c(c(C4=CCNC(C(F)F)CC4)c2F)OCC3)n1 (single isomer, unassigned) [Compound 354-a]	> 2000	> 2000
CNc1cc(C)nc(Nc2cc3c(c(C4=CCNC(C(F)F)CC4)c2F)OCC3)n1 (single isomer, unassigned) [Compound 354]	< 100	100 to 500
CNc1cc(C)nc(Nc2cc3c(c(C4=CCNC(C)CC4)c2Cl)OCO3)n1 (single isomer, unassigned) [Compound 356-a]	500 to 2000	> 2000
CNc1cc(C)nc(Nc2cc3c(c(C4=CCNC(C)CC4)c2Cl)OCO3)n1 (single isomer, unassigned) [Compound 356]	< 100	< 100
CNc1cc(C)nc(Nc2cc3c(c(C4=CCNCC(O)C4)c2C)OCCC3)n1 (single isomer, unassigned) [Compound 360]	100 to 500	500 to 2000
[2H]Cc1cc(NC([2H])([2H])[2H])nc(Nc2cc3c(c(C4=CCNCCC4)c2)OCCO3)n1 [Compound 216]	< 100	< 100
CNc1cc(C)nc(Nc2cc3c(c([C@H]4CC[C@H](N)CC4)c2)OCCO3)n1 [Compound 337]	100 to 500	> 2000

Further lines, results first:

IC50 [1] [nM]	IC50 [2] [nM]	Compound
100 to 500	500 to 2000	CNc1cc(C)nc(Nc2cc3c(c(C4=CCNC(C)CC4)c2Cl)OCCC3)n1 (single isomer, unassigned) [Compound 365]
500 to 2000	> 2000	CNc1cc(C)nc(Nc2cc3c(c(C4=CCNCC(OC)C4)c2F)OCC3)n1 (single isomer, unassigned) [Compound 366-a]
100 to 500	500 to 2000	CNc1cc(C)nc(Nc2cc3c(c(C4=CCNCC(OC)C4)c2F)OCC3)n1 (single isomer, unassigned) [Compound 366]
100 to 500	100 to 500	CNc1cc(C)nc(Nc2cc3c(c(C4=CCNC(C)CC4)c2C)OCCO3)n1 (single isomer, unassigned) [Compound 368]
> 2000	> 2000	CNc1cc(C)nc(Nc2cc3c(c(C4=CCNC(CF)CC4)c2F)OCC3)n1 (single isomer, unassigned) [Compound 371-a]
< 100	< 100	CNc1cc(C)nc(Nc2cc3c(c(C4=CCNC(CF)CC4)c2F)OCC3)n1 (single isomer, unassigned) [Compound 371]
500 to 2000	500 to 2000	CNc1cc(C)nc(Nc2cc3c(c(C4=CCNC(C)CC4)c2Cl)OCC3)n1 (single isomer, unassigned) [Compound 374-a]
< 100	< 100	CNc1cc(C)nc(Nc2cc3c(c(C4=CCN(C)CC(O)C4)c2C)OCC3)n1 (single isomer, unassigned) [Compound 379]
100 to 500	500 to 2000	CNc1cc(C)nc(Nc2cc3c(c(C4=CCNC(C)CC4)c2F)OCO3)n1 (single isomer, unassigned) [Compound 380]
500 to 2000	500 to 2000	CNc1cc(C)nc(Nc2cc3c(c(C4=CCNC(C)CC4)c2C)OCC3)n1 (single isomer, unassigned) [Compound 383-a]
> 2000	> 2000	CNc1cc(C)nc(Nc2cc3c(c(C4=CCNC(C)CC4)c2C)OCCC3)n1 (single isomer, unassigned) [Compound 385-a]
< 100	100 to 500	CNc1cc(C)nc(Nc2cc3c(c(C4=CCNC(C)CC4)c2C)OCCC3)n1 (single isomer, unassigned) [Compound 385]
< 100	100 to 500	CNc1cc(C)nc(Nc2cc3c(c(C4=CCN(C)CC(O)C4)c2C)OCCC3)n1 (single isomer, unassigned) [Compound 418]
500 to 2000	> 2000	CNc1cc(C)nc(Nc2cc3c(c(C4=CCN(C)CC(O)C4)c2C)OCCC3)n1 (single isomer, unassigned) [Compound 419]
500 to 2000	> 2000	CNc1cc(C)nc(Nc2cc3c(c(C4=CCC(N)CC4)c2F)OCC3)n1 (single isomer, unassigned) [Compound 436]
